The source made the active and inactive calls. No cut-off for these calls is given here.
Legend:
MCF7 [1] = assay: Inhibition of cell proliferation of human MCF7 cells incubated for 24 hrs; assay type: functional, cell-based; settings: MCF7, 24 h
Protein phosphatase 1D = target: T1, Protein phosphatase 1D (Homo sapiens, UniProt O15297); assay: Inhibition of His-tagged PPM1D (1 to 420 residues) (unknown origin) expressed in Escherichia coli BL21 (DE3) pLysS cells using Ac-VEPPLS(P)QETFSDLW-NH2 substrate
T1 sequence (O15297 whole entry): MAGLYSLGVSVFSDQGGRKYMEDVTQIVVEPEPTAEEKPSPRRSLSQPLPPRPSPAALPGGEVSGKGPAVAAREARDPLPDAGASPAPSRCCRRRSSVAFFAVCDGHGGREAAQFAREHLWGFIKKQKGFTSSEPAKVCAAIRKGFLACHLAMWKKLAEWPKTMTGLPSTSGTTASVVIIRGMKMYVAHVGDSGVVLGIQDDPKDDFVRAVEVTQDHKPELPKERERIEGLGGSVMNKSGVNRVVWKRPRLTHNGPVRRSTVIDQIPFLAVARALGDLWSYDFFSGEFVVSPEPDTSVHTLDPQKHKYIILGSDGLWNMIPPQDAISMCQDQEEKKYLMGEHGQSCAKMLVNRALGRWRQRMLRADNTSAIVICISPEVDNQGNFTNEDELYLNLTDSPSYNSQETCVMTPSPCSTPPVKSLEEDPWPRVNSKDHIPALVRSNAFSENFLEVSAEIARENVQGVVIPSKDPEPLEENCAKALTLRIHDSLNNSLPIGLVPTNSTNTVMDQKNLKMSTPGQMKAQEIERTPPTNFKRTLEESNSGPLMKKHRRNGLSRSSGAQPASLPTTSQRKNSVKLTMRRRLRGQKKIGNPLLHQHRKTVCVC

NCI-H1299 [2] = assay: Inhibition of cell proliferation of human H1299 cells overexpressing HA-PPM1D at 5 to 20 incubated for 24 hrs; assay type: functional, cell-based
NCI-H1299 [3] = assay: Inhibition of cell proliferation of human H1299 cells at 5 to 20 incubated for 24 hrs; assay type: functional, cell-based
Homo sapiens [4] = organism: Homo sapiens; assay: Inhibition of PP2A (unknown origin) at 2 to 10 uM using Ac-TDDE(Nle)T(P)GY(P)VAT-NH2 substrate
MCF7 [5] = assay: Induction of cell cycle arrest in human MCF7 cells assessed as increase in cell accumulation at G2/M phase incubated for 24 hrs by propidium iodide staining based flow cytometry; assay type: functional
Homo sapiens [6] = organism: Homo sapiens; assay: Inhibition of PP1 (unknown origin) at 2 to 10 uM using Ac-WGAKAKKT(P)PKAKK-NH2 substrate
MCF7 [7] = assay: Effect on PPM1D protein expression in UV irradiated human MCF7 cells by Western blotting method; assay type: functional, cell-based
MCF7 [8] = assay: Inhibition of cell proliferation of human MCF7 cells at > 20 uM incubated for 24 hrs; assay type: functional, cell-based
MCF7 [9] = assay: Induction of cell cycle arrest in human MCF7 cells assessed as increase in cell accumulation at subG1 phase incubated for 24 hrs by propidium iodide staining based flow cytometry; assay type: functional
[10] = target: T2, Protein phosphatase 1A (Homo sapiens) (UniProt P35813); assay: Inhibition of His-tagged PPM1A (unknown origin) at 2 to 10 uM using Ac-TDDE(Nle)T(P)GY(P)VAT-NH2 substrate
T2 sequence (whole entry): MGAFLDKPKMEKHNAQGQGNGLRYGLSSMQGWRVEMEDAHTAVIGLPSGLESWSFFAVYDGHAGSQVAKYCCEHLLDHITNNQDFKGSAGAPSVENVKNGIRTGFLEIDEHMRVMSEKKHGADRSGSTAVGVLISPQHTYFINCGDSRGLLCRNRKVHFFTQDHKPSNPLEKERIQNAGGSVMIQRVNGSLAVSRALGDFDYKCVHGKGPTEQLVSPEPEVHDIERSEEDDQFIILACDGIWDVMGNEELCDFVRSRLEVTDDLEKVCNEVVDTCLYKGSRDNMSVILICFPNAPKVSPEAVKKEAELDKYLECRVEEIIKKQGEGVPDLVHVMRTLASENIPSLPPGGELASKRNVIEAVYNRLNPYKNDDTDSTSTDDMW

MCF7 [11] = assay: Induction of apoptosis in human MCF7 cells incubated for 24 hrs by Annexin-V staining based flow cytometry; assay type: functional, cell-based

SMILES	IC50 (MCF7 [1])	IC50 (Protein phosphatase 1D)	inhibition (NCI-H1299 [2])	inhibition (NCI-H1299 [3])	inhibition (Homo sapiens [4])	Activity (MCF7 [5])	inhibition (Homo sapiens [6])	Activity (MCF7 [7])	inhibition (MCF7 [8])	Activity (MCF7 [9])	inhibition [10]	Activity (MCF7 [11])
CC[Si](CC)(CC)O[C@@H]1CCC[C@@H]2[C@@H]1C[C@H](O[Si](C)(C)C(C)(C)C)C[C@@]2(C)CO	36.1 µM	–	–	–	–	–	–	–	–	–	–	–
Cc1ncc(Cl)cc1NCc1ccc(C(=O)N[C@@H](CC2CCCC2)C(=O)NC2CC2)s1	9.5 µM	86.3 nM	inactive	inactive	–	–	–	–	–	–	–	–
CC[Si](CC)(CC)O[C@@H]1CCC[C@@H]2[C@@H]1C[C@H](O[Si](C)(C)C(C)(C)C)C[C@@]2(C)C(=O)O	7.4 µM	–	Active	inactive	inactive	Active	inactive	inactive	Active	Active	inactive	Active
CC[Si](CC)(CC)O[C@@H]1C[C@H](C)C[C@@H]2[C@@H]1C[C@H](O[Si](C)(C)C(C)(C)C)[C@@H]1[C@](C)(CO)C[C@H](O)C[C@@]21C	26.9 µM	86.9 nM	–	–	–	–	–	–	–	–	–	–

Source: ChEMBL document CHEMBL3612007, “Novel inhibitors targeting PPM1D phosphatase potently suppress cancer cell proliferation” (Bioorg Med Chem, 2015)
